Source: US7589213B2 (priority 2007, dated 2009)

Experiments:
hEP3A = biological target: T1, hEP3A (Homo sapiens, UniProt P43115); test: Other receptors functional EC50, hEP3A; assay type: cell-based
T1 sequence (P43115 1-390): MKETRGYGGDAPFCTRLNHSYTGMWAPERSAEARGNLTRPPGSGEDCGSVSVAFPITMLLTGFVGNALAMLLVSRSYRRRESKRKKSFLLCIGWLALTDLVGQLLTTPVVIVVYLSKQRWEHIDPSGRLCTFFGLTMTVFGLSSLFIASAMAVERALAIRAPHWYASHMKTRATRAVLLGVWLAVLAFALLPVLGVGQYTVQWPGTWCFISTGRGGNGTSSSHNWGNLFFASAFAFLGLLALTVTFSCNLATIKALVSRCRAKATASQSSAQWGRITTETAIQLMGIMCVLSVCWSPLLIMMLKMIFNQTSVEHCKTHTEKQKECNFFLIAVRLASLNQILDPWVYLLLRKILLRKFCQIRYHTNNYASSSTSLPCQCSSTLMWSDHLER
Text: (§1) U.S. patent application Ser. No. 11/553,143, filed on Oct. 26, 2006, incorporated by reference herein, describes the methods used to obtain the in vitro data in the table below.

EP2 [1] = biological target: T2, EP2 (Homo sapiens, UniProt P43116); test: EP2 cAMP assay; assay type: cell-based
T2 sequence (P43116 whole entry): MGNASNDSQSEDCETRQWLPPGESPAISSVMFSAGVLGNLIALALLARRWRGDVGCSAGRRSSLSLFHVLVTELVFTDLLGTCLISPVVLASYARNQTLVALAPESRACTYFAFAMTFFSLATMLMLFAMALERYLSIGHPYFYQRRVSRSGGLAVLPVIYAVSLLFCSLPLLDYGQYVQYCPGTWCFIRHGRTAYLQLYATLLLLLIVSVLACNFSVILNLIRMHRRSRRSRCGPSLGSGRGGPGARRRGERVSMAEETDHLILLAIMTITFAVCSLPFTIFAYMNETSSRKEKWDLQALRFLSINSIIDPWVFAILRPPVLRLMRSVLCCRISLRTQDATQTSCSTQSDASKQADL
Text: as §1

EP2 [2] = biological target: T2, EP2; test: EP2 flipr assay; assay type: cell-based
Text: as §1

EP2 [3] = biological target: T2, EP2; test: EP2 binding (Ki)
Text: as §1

hDP = biological target: T3, hDP (Homo sapiens, UniProt Q13258); test: Other receptors functional EC50, hDP; assay type: cell-based
T3 sequence (Q13258 1-359): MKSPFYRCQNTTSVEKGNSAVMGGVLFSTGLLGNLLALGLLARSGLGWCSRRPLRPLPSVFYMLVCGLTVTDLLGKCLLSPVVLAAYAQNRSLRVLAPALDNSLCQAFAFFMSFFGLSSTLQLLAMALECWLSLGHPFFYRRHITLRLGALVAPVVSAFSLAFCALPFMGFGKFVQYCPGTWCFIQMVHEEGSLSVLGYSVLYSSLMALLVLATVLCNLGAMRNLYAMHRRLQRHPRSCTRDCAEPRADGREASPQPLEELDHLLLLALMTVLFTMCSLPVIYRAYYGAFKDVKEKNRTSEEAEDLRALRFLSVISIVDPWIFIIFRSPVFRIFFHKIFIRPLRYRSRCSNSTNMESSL
Text: as §1

hEP1 = biological target: T4, hEP1 (Homo sapiens, UniProt P34995); test: Other receptors functional EC50, hEP1; assay type: cell-based
T4 sequence (P34995 1-402): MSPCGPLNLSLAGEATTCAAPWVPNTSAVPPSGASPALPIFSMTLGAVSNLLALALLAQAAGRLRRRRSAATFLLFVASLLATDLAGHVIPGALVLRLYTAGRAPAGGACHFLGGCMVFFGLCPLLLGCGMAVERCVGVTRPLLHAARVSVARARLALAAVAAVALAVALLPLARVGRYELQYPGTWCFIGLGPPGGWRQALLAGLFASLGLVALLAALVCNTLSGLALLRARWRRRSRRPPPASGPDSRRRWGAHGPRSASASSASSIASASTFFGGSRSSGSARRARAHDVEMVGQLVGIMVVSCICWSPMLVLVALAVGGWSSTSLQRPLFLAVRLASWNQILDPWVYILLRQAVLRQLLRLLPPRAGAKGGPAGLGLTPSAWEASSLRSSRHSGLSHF
Text: as §1

EP4 [4] = biological target: T5, EP4 (Homo sapiens, UniProt P35408); test: EP4 binding (KI)
T5 sequence (P35408 whole entry): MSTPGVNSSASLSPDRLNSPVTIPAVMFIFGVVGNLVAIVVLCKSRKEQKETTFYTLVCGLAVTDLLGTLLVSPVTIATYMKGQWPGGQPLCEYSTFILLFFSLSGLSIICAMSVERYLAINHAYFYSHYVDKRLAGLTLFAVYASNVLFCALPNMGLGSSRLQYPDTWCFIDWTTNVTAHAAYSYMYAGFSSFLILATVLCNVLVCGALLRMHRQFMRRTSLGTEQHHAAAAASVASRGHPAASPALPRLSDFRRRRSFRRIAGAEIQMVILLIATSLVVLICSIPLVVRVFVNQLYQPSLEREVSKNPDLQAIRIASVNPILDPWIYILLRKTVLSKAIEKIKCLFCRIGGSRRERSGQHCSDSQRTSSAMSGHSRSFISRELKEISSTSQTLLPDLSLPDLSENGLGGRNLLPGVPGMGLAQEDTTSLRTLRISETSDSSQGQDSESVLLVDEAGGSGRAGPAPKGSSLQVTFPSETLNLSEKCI
Text: as §1

EP4 [5] = biological target: T5, EP4; test: EP4 flipr assay; assay type: cell-based
Text: as §1

normotensive dogs = test: Intraocular pressure and ocular surface hyperemia in normotensive dogs; assay type: in vivo, dog; settings: once daily for 5 days
Description: U.S. Pat. No. 7,091,231 describes the methods used to carry out the tests reported below.
[…] The maximum intraocular pressure (IOP) decrease from baseline was 6.3 mmHg (39%) at 4 h; the maximum ocular surface hyperemia (OSH) score was 1.6 at 28 hours. This compound was also tested in laser-induced hypertensive monkeys, using one single day dose. At 0.01%, the maximum IOP decrease from baseline was 23 mmHg (61%) at 24 hours.

hTP = biological target: T6, hTP (Homo sapiens, UniProt P21731); test: Other receptors functional EC50, hTP; assay type: cell-based
T6 sequence (P21731 1-343): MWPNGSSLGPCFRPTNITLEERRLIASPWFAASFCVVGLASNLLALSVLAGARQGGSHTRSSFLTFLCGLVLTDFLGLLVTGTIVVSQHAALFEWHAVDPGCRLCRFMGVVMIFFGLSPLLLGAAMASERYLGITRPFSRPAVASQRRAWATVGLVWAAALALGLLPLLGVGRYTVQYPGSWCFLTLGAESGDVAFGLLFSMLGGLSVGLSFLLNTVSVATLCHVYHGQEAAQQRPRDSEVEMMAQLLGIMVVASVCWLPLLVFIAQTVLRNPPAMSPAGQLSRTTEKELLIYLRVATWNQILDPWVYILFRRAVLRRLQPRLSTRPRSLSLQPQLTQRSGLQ
Text: as §1

hIP = hIP (Homo sapiens, UniProt P43119); test: Other receptors functional EC50, hIP; assay type: cell-based
Chain of hIP (P43119 whole entry): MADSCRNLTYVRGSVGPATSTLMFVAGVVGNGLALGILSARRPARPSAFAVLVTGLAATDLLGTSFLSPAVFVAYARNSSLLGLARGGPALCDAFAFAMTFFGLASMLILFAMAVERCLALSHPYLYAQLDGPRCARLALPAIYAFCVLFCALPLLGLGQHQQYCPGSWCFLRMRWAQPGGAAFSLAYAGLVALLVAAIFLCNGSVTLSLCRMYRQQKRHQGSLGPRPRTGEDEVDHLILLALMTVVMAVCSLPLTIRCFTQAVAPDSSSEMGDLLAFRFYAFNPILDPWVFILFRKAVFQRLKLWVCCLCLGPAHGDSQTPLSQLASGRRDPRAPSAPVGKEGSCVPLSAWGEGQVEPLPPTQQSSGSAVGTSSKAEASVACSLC
Text: as §1

Row | Compound | EC50 (hEP3A) | EC50 (EP2 [1]) | EC50 (EP2 [2]) | Ki (EP2 [3]) | EC50 (hDP) | EC50 (hEP1) | Ki (EP4 [4]) | EC50 (EP4 [5]) | maximum ocular surface hyperemia (OSH) score (normotensive dogs; 0.001%, maximum at 50 hours) | maximum ocular surface hyperemia (OSH) score (normotensive dogs; 0.01%, maximum at 26 hours) | maximum ocular surface hyperemia (OSH) score (normotensive dogs; 0.01%, maximum at 28 hours) | EC50 (hTP) | EC50 (hIP)
1 | CCCCCC(O)c1ccc(N2C(=O)CC[C@@H]2CCSc2nc(C(=O)O)cs2)cc1 (single isomer, unassigned) [compound 17] | 35 nM | 0.15 nM | 18 nM | 15 nM | > 10000 nM | > 10000 nM | – | – | – | – | – | – | –
2 | CCCCCC(O)c1ccc(N2C(=O)CC[C@@H]2CCSc2nc(C(=O)O)cs2)cc1 (single isomer, unassigned) [compound 18] | 46 nM | 0.09 nM | 7 nM | 15 nM | 7170 nM | – | – | – | – | – | – | – | –
3 | CCCCCCC(O)c1ccc(N2C(=O)CC[C@@H]2CCSc2nc(C(=O)O)cs2)cc1 (single isomer, unassigned) [compound 36] | 11 nM | 1.2 nM | 57 nM | 13 nM | 11900 nM | – | > 10 µM | – | – | – | – | – | –
4 | CCCCCCC(O)c1ccc(N2C(=O)CC[C@@H]2CCSc2nc(C(=O)O)cs2)cc1 (single isomer, unassigned) [compound 37] | 51 nM | 0.4 nM | 11 nM | 9 nM | 5320 nM | – | 9.15 µM | 14.6 µM | – | – | – | – | –
5 | CCCCCC(O)c1ccc(N2C(=O)CC[C@@H]2CCSc2nc(C(=O)OC(C)C)cs2)cc1 (single isomer, unassigned) [compound 67] | – | – | – | – | – | – | – | – | 1.9 | 2.0 | – | – | –
6 | CCCCCC(O)c1ccc(N2C(=O)CC[C@@H]2CCSc2nc(C(=O)OC(C)C)cs2)cc1 (single isomer, unassigned) [compound 68] | – | – | – | – | – | – | – | – | – | – | 2.0 | – | –
7 | CCCCCC(O)c1ccc(N2C(=O)CC[C@@H]2CCSc2nc(C(=O)O)cs2)cc1 (stereo partly drawn) [compound 14, (R)-2-(2-(1-(4-(1-hydroxyhexyl)phenyl)-5-oxopyrrolidin-2-yl)ethylthio)thiazole-4-carboxylic acid] | 44 nM | 0.19 nM | 36 nM | 11 nM | > 10000 nM | > 10000 nM | > 10 µM | – | – | – | – | > 10000 nM | > 10000 nM
8 | CCCCCC(F)c1ccc(N2C(=O)CC[C@@H]2CCSc2nc(C(=O)O)cs2)cc1 (stereo partly drawn) [compound 19, (R)-2-(2-(1-(4-(1-fluorohexyl)phenyl)-5-oxopyrrolidin-2-yl)ethylthio)thiazole-4-carboxylic acid] | 90 nM | 0.23 nM | 8 nM | 9 nM | > 10000 nM | > 10000 nM | > 10 µM | – | – | – | – | – | –
9 | CCCCCC(O)c1ccc(N2C(=O)CC[C@@H]2CCSc2ncc(C(=O)O)s2)cc1 (stereo partly drawn) [compound 22, (R)-2-(2-(1-(4-(1-hydroxyhexyl)phenyl)-5-oxopyrrolidin-2-yl)ethylthio)thiazole-5-carboxylic acid] | 11400 nM | 4 nM | 1800 nM | 389 nM | > 10000 nM | – | > 10 µM | – | – | – | – | – | > 10000 nM
10 | CCCCCCC(O)c1ccc(N2C(=O)CC[C@@H]2CCSc2nc(C(=O)O)cs2)cc1 (stereo partly drawn) [compound 33, (R)-2-(2-(1-(4-(1-hydroxyheptyl)phenyl)-5-oxopyrrolidin-2-yl)ethylthio)thiazole-4-carboxylic acid] | 25 nM | 0.4 nM | 3 nM | 12 nM | 1560 nM | > 10000 nM | 6.36 µM | > 10 µM | – | – | – | – | –
11 | CCCCCCC(=O)c1ccc(N2C(=O)CC[C@@H]2CCSc2nc(C(=O)O)cs2)cc1 [compound 38, (R)-2-(2-(1-(4-heptanoylphenyl)-5-oxopyrrolidin-2-yl)ethylthio)thiazole-4-carboxylic acid] | 43 nM | 0.7 nM | 45 nM | 18 nM | 594 nM | – | 3.03 µM | > 10 µM | – | – | – | – | –
12 | CCCCCC(O)c1ccc(N2C(=O)CC[C@@H]2COCc2cc(C(=O)O)cs2)cc1 (stereo partly drawn) [compound 42, (R)-5-(((1-(4-(1-hydroxyhexyl)phenyl)-5-oxopyrrolidin-2-yl)methoxy)methyl)thiophene-3-carboxylic acid] | 1520 nM | 5.5 nM | 2240 nM | 448 nM | – | – | > 10 µM | – | – | – | – | – | –
13 | CCCCCC(F)c1ccc(N2C(=O)CC[C@@H]2COCc2cc(C(=O)O)cs2)cc1 (stereo partly drawn) [compound 43, (R)-5-(((1-(4-(1-fluorohexyl)phenyl)-5-oxopyrrolidin-2-yl)methoxy)methyl)thiophene-3-carboxylic acid] | 1960 nM | 7 nM | 3850 nM | 256 nM | – | – | > 10 µM | – | – | – | – | – | –
14 | CCCCCC(O)c1ccc(N2C(=O)CC[C@@H]2COCc2csc(C(=O)O)c2)cc1 (stereo partly drawn) [compound 47, (R)-4-(((1-(4-(1-hydroxyhexyl)phenyl)-5-oxopyrrolidin-2-yl)methoxy)methyl)thiophene-2-carboxylic acid] | 1340 nM | 18 nM | 2530 nM | 784 nM | – | – | > 10 µM | – | – | – | – | – | –
15 | CCCCCC(F)c1ccc(N2C(=O)CC[C@@H]2COCc2csc(C(=O)O)c2)cc1 (stereo partly drawn) [compound 48, (R)-4-(((1-(4-(1-fluorohexyl)phenyl)-5-oxopyrrolidin-2-yl)methoxy)methyl)thiophene-2-carboxylic acid] | 3410 nM | 40 nM | 5010 nM | 1930 nM | – | – | > 10 µM | – | – | – | – | – | –
16 | CCCCCC(F)c1ccc(N2C(=O)CC[C@@H]2CSc2nc(C(=O)O)cs2)cc1 (stereo partly drawn) [compound 54] | 503 nM | 117 nM | 212 nM | 345 nM | 16400 nM | – | > 10 µM | – | – | – | – | 14500 nM | –
17 | CCCCCC(O)c1ccc(N2C(=O)CC[C@@H]2CSc2nc(C(=O)O)cs2)cc1 (stereo partly drawn) [compound 55] | 360 nM | 120 nM | 284 nM | 355 nM | 16000 nM | – | > 10 µM | – | – | – | – | 3890 nM | –
18 | CCCCCC(O)c1ccc(N2C(=O)CC[C@@H]2CCCc2nc(C(=O)O)cs2)cc1 (stereo partly drawn) [compound 63, (S)-2-(3-(1-(4-(1-hydroxyhexyl)phenyl)-5-oxopyrrolidin-2-yl)propyl)thiazole-4-carboxylic acid] | 42 nM | 0.8 nM | 37 nM | 115 nM | > 10000 nM | – | – | – | – | – | – | – | –
19 | CCCCCC(O)c1ccc(N2C(=O)CC[C@@H]2CCSc2nc(C(=O)OC(C)C)cs2)cc1 (stereo partly drawn) [compound 66, Isopropyl 2-(2-((2R)-1-(4-(1-hydroxyhexyl)phenyl)-5-oxopyrrolidin-2-yl)ethylthio)thiazole-4-carboxylate] | – | – | – | – | – | – | – | – | – | – | 1.6 | – | –
